Assay [1] deals with T1, Arabidopsis HPPD (SEQ ID NO:53), wild-type (Arabidopsis thaliana, UniProt P93836).
T1 construct: His6 (N); made in house; host or cells: E. coli BL21 (DE3)
T1 sequence (P93836 1-445): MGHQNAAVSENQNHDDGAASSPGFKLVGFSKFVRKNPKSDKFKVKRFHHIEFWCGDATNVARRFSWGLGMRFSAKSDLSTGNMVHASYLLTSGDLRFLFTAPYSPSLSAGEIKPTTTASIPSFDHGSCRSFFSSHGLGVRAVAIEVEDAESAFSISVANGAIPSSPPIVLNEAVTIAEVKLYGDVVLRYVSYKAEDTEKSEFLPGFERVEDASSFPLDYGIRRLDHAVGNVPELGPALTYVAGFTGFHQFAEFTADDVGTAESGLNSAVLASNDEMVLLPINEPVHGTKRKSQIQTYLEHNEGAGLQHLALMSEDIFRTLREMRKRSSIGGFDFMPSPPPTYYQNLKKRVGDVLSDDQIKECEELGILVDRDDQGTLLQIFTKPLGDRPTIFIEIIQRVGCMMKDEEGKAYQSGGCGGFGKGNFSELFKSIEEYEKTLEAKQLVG
Put plainly: HPPD activity assay (HGA by HPLC), wild-type enzyme characterization. Type of assay: biochemical. The conditions noted are these: Arabidopsis HPPD. Here is the method:
(§1) HPPD produces homogentisic acid and CO2 from 4-hydroxyphenylpyruvate (4-HPP) and 02. The activity assay for HPPD is based on the analysis of homogentisic acid by reversed phase HPLC. The assay mixture can contain 150 mM potassium phosphate buffer pH 7.0, 50 mM L-ascorbic acid, 100 μM Catalase (Sigma-Aldrich), 1 μM FeSO4 and 0.2 units of purified HPPD enzyme in a total volume of 505 μl. 1 unit is defined as the amount of enzyme that is required to produce 1 nmol of HGA per minute at 20° C.
(§2) After a preincubation of 30 min the reaction is started by adding 4-HPP to a final concentration of 0.05 mM. The reaction is allowed to proceed for 45 min at room temperature. The reaction is stopped by the addition of 50 μl of 4.5 M phosphoric acid. The sample is filtered using a […] pore size PVDF filtration device.
(§3) 5 μl of the cleared sample is analyzed on an UPLC HSS T3 column (particle size 1.8 μm, dimensions 2.1×50 mm; Waters) by isocratic elution using 90% 20 mM NaH2PO4 pH 2.2, 10% methanol (v/v).
(§4) HGA is detected electrochemically at 750 mV (mode: DC; polarity: positive) and quantified by integrating peak areas (Empower software; Waters).
(§5) Inhibitors are dissolved in DMSO (dimethylsulfoxide) to a concentration of 0.5 mM. From this stock solution serial five-fold dilutions are prepared in DMSO, which are used in the assay. The respective inhibitor solution accounts for 1% of the assay volume. […] Activities are normalized by setting the uninhibited enzyme activity to 100%. IC50 values are calculated using non-linear regression.
(§6) Using methods which are described in the above examples or well known in the art, purified, recombinant wild-type HPPD enzymes are characterized with respect to their kinetic properties and sensitivity towards HPPD inhibiting herbicides. Apparent michaelis constants (Km) and maximal reaction velocities (Vmax) are calculated by non-linear regression with the software GraphPad Prism 5 (GraphPad Software, La Jolla, USA) using a substrate inhibition model. […] Weighted means (by standard error) of Km and IC50 values are calculated from at least three independent experiments.
(§7) Field performance of the HPPD enzyme, which is used as a herbicide tolerance trait, may depend not only on its lack of sensitivity towards HPPD inhibiting herbicides but also on its activity. To assess the potential performance of a herbicide tolerance trait a tolerance index (TI) is calculated using the following formula: […]
(§8) Easy comparison and ranking of each trait is enabled by normalizing tolerance indexes on Arabidopsis wild-type HPPD.

The target of assay [2] is T2, Hordeum HPPD (SEQ ID NO:2), wild-type (Hordeum vulgare, UniProt O48604, A164G/R146V/R147D/R148G).
T2 construct: His (N); made in house; host or cells: E. coli BL21 (DE3)
The description is as above. Type of assay: biochemical. The conditions noted are these: Hordeum HPPD. Here is the method: as §1, §2, §3, §4, §5, §6, §7, §8

Setting [3] is: apparent Km, read-out: Km [μM] (4-HPP).
[4] abbreviates: apparent kcat from Vmax, substrate 4-HPP.

T2 sequence (O48604 whole entry R146V/R147D/R148G/A164G): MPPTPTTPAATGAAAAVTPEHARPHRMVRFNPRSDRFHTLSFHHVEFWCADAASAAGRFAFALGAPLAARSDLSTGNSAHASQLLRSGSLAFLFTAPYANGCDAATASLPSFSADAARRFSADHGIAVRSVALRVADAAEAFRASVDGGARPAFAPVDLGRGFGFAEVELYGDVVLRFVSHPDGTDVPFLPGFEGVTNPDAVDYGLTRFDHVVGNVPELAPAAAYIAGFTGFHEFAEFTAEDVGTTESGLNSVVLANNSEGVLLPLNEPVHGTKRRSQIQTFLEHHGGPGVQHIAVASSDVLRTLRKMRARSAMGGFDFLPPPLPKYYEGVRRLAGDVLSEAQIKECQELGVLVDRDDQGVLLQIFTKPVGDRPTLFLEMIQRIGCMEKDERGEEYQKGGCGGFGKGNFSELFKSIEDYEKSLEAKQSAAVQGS

For orientation: Km means the substrate concentration at which the rate is half of its maximum. For `O=C(O)C(=O)Cc1ccc(O)cc1` [Inhibitor 4-HPP, 4-hydroxyphenylpyruvate, reference compound], the Km in assay [1] (setting [3]) was 13 µM; in assay [2] (setting [3]), 26 µM. Also, the kcat in assay [1] (setting [4]) amounted to 12.9 S^−1; in assay [2] (setting [4]), 11.5 S^−1.

Source of the values: patent US20160102317A1, “PLANTS HAVING INCREASED TOLERANCE TO HERBICIDES” (BASF SE, priority 2013, published 2016).
